According to US20250066365A1, “Ribonucleoside Analogues Against -Sars-Cov-2” (priority 2021, published 2025):
Converted amounts (≈) assume the structure as drawn.

Key:
[1] = test system: SARS-CoV-2 USA_WA1/2020 strain; assay: Activity against SARS-CoV-2 in Vero E6 cells (cytopathic effect, visual and neutral red); type: cell-based; conditions: read-out: EC50 (mM/mL) USA_WA1/2020 strain
[2] = in vitro; conditions: African green monkey
[3] = test system: SARS-CoV-2 USA_WA1/2020 strain; assay: microbe, parasite or virus in culture; type: cell-based
[4] = test system: Vero 76 cells
[5] = in vitro; conditions: African green monkey; remark: listed apart in the source
[6] = biological target: SARS-CoV-2 nsp14 (Severe acute respiratory syndrome coronavirus 2, UniProt P0DTD1); conditions: cited from earlier work
[7] = Severe acute respiratory syndrome coronavirus 2, Vero C1008, Neutral red (Cytopathic effect/Toxicity)
[8] = Severe acute respiratory syndrome coronavirus 2, Vero C1008, Visual (Cytopathic effect/Toxicity)
[9] = CC50 (mM/mL) Vero E6, Neutral red (Cytopathic effect/Toxicity)
[10] = CC50 (mM/mL) Vero E6, Visual (Cytopathic effect/Toxicity)
[11] = Severe acute respiratory syndrome coronavirus 2, Vero 76, Neutral red (Cytopathic effect/Toxicity), Vero 76 cells, read-out: EC50 (mg/mL) USA_WA1/2020 strain
[12] = Severe acute respiratory syndrome coronavirus 2, Vero 76, Visual (Cytopathic effect/Toxicity), Vero 76 cells, read-out: EC50 (mg/mL) USA_WA1/2020 strain
[13] = CC50 (mg/mL) Vero 76, Neutral red (Cytopathic effect/Toxicity)
[14] = CC50 (mg/mL) Vero 76, Visual (Cytopathic effect/Toxicity)

Nc1ncnn2c([C@@H]3O[C@H](CO)[C@@H](O)[C@H]3O)cc(/C=C/c3cccs3)c12 [Compound 4.2j, 7-((E)-2-(Thiophen-2-yl)vinyl)-4-aza-7,9-dideazaadenosine]
EC50 [1, 7]: > 0.032 mM
EC50 [1, 8]: > 0.028 mM
CC50 [2, 9]: 0.032 mM
CC50 [2, 10]: 0.028 mM

Nc1ncnn2c([C@@H]3O[C@H](CO)[C@@H](O)[C@H]3O)cc(/C=C/c3ccsc3)c12 [Compound 4.2k, 7-((E)-2-(Thiophen-3-yl)vinyl)-4-aza-7,9-dideazaadenosine]
EC50 [1, 7]: > 0.0031 mM
EC50 [1, 8]: > 0.0032 mM
CC50 [2, 9]: 0.0031 mM
CC50 [2, 10]: 0.0032 mM

C=Cc1cc([C@@H]2O[C@H](CO)[C@@H](O)[C@H]2O)n2ncnc(N)c12 [Compound 4.2a, 7-Vinyl-4-aza-7,9-dideazaadenosine]
EC50 [3, 11]: 0.00016 mg/mL (≈ 0.547 µM)
EC50 ([3]; Severe acute respiratory syndrome coronavirus 2, Vero 76, Vero 76 cells, read-out: EC50 against SARS-CoV-2): 0.00016 mg/mL (≈ 0.547 µM)
EC50 [3, 12]: < 0.0001 mg/mL
activity against SARS-CoV-2 (in words) ([3]; Vero 76 cells): active
cytotoxicity (in words) [4]: significant cytotoxicity
CC50 [5, 13]: 4.7 mg/L (≈ 16.1 µM)
CC50 [5, 14]: 3.2 mg/L (≈ 10.9 µM)

Nc1ncnn2c([C@@H]3O[C@H](CO)[C@@H](O)[C@H]3O)cc(/C=C/C3CCCCC3)c12 [Compound 4.2l, 7-((E)-2-Cyclohexylvinyl)-4-aza-7,9-dideazaadenosine]
EC50 [1, 7]: > 0.1 mM
EC50 [1, 8]: > 0.1 mM
CC50 [2, 9]: > 0.1 mM
CC50 [2, 10]: > 0.1 mM

Nc1ncnn2c([C@@H]3O[C@H](CO)[C@@H](O)[C@H]3O)cc(/C=C/c3ccc(F)cc3)c12 [Compound 4.2d, 7-((E)-4-Fluorostyryl)-4-aza-7,9-dideazaadenosine]
EC50 [3, 11]: > 0.0058 mg/mL
EC50 [3, 12]: > 0.0032 mg/mL
CC50 [5, 13]: 5.8 mg/L (≈ 15 µM)
CC50 [5, 14]: 3.2 mg/L (≈ 8.28 µM)

Nc1ncnn2c([C@@H]3O[C@H](CO)[C@@H](O)[C@H]3O)cc(/C=C/C3CCCC3)c12 [Compound 4.2i, 7-((E)-2-Cyclopentylvinyl)-4-aza-7,9-dideazaadenosine]
EC50 [1, 7]: > 0.1 mM
EC50 [1, 8]: > 0.1 mM
CC50 [2, 9]: > 0.1 mM
CC50 [2, 10]: > 0.1 mM

Nc1ncnn2c([C@@H]3O[C@H](CO)[C@@H](O)[C@H]3O)cc(/C=C/c3cccc(F)c3)c12 [Compound 4.2g, 7-((E)-3-Fluorostyryl)-4-aza-7,9-dideazaadenosine]
EC50 [1, 7]: > 0.032 mM
EC50 [1, 8]: > 0.032 mM
CC50 [2, 9]: 0.032 mM
CC50 [2, 10]: 0.032 mM

N#Cc1cn([C@@H]2O[C@H](CSCC[C@H](N)C(=O)O)C(O)[C@@H]2O)c2ncnc(N)c12 (stereo partly drawn) [SS148]
concentration range of nsp14 inhibition (in words) [6]: submicromolar to nanomolar

Cc1ccc(/C=C/c2cc([C@@H]3O[C@H](CO)[C@@H](O)[C@H]3O)n3ncnc(N)c23)cc1 [Compound 4.2c, 7-((E)-4-Methylstyryl)-4-aza-7,9-dideazaadnosine]
EC50 against SARS-CoV-2 [3]: 0.3 mg/L (≈ 0.784 µM)
activity against SARS-CoV-2 (in words) ([3]; Vero 76 cells): potent antiviral activity

Nc1ncnn2c([C@@H]3O[C@H](CO)[C@@H](O)[C@H]3O)cc(/C=C/c3ccc(Cl)cc3)c12 [Compound 4.2f, 7-((E)-4-Chlorostyryl)-4-aza-7,9-dideazaadenosine]
EC50 [1, 7]: > 0.032 mM
EC50 [1, 8]: > 0.032 mM
CC50 [2, 9]: 0.032 mM
CC50 [2, 10]: 0.032 mM

Nc1ncnn2c([C@@H]3O[C@H](CO)[C@@H](O)[C@H]3O)cc(/C=C/C3CC3)c12 [Compound 4.2h, 7-((E)-2-Cyclopropylvinyl)-4-aza-7,9-dideazaadenosine]
EC50 [1, 7]: > 0.1 mM
EC50 [1, 8]: > 0.1 mM
CC50 [2, 9]: > 0.1 mM
CC50 [2, 10]: > 0.1 mM

Nc1ncnc2c1ncn2[C@@H]1O[C@H](CSCCNC(=O)NCCc2ccccc2)[C@@H](O)[C@H]1O [DS0464]
concentration range of nsp14 inhibition (in words) [6]: low-micromolar

Nc1ncnn2c([C@@H]3O[C@H](CO)[C@@H](O)[C@H]3O)cc(/C=C/c3ccc(C(F)(F)F)cc3)c12 [Compound 4.2e, 7-((E)-4-(Trifluoromethyl)styryl)-4-aza-7,9-dideazaadenosine]
EC50 [3, 11]: > 0.032 mg/mL
EC50 [3, 12]: > 0.032 mg/mL
activity against SARS-CoV-2 (in words) ([3]; Vero 76 cells): inactive
CC50 [5, 13]: 32 mg/L (≈ 73.3 µM)
CC50 [5, 14]: 32 mg/L (≈ 73.3 µM)

Nc1ncnn2c([C@@H]3O[C@H](CO)[C@@H](O)[C@H]3O)cc(/C=C/c3ccccn3)c12 [Compound 4.2b, 7-((E)-2-(Pyridin-2-yl)vinyl)-4-aza-7,9-dideazaadenosine]
EC50 [3, 11]: < 0.0001 mg/mL
EC50 [3, 12]: > 0.00032 mg/mL
cytotoxicity (in words) [4]: potent cytotoxicity
CC50 [5, 13]: 0.32 mg/L (≈ 0.866 µM)
CC50 [5, 14]: 0.32 mg/L (≈ 0.866 µM)

CCC/C=C/c1cc([C@@H]2O[C@H](CO)[C@@H](O)[C@H]2O)n2ncnc(N)c12 [Compound 4.2m, 7-((E)-pent-1-en-1-yl)-4-aza-7,9-dideazaadenosine]
EC50 [1, 7]: > 0.1 mM
EC50 [1, 8]: > 0.1 mM
CC50 [2, 9]: > 0.1 mM
CC50 [2, 10]: > 0.1 mM
